Reference: article PMC9953746, “Dimeric Benzodiazepines as Peptide Mimetics to Overcome p53-Dependent Drug Resistance of Tumors” (Biomolecules, 2023)
Like-named read-outs stand apart in the source and are kept apart here. Marks after values point to notes of the source that are not given here.

What was measured:
HCT-116 = system: HCT-116; design: method as in PMID 26594756, PMID 32095421; conditions: in vitro; cited from earlier work
normal IKHE cell line = system: normal IKHE cell line; design: method as in PMID 26594756, PMID 32095421; conditions: in vitro; cited from earlier work
MDA-MB-435 = system: MDA-MB-435; design: method as in PMID 26594756, PMID 32095421; conditions: in vitro; cited from earlier work
HepG2 = system: HepG2; design: method as in PMID 26594756, PMID 32095421; conditions: in vitro; cited from earlier work
Calu-3 = system: Calu-3; design: method as in PMID 26594756, PMID 32095421; conditions: in vitro; cited from earlier work
[1] = system: normal lung fibroblasts MRC-5; test: MTT cell viability assay, MRC-5; assay type: cell-based, human; conditions: read-out: IC50 MRC-5 (normal lung)
Text: (§1) The following cell lines were used in this study: epidermoid carcinoma A-431 (ATCC® CRL-1555), lung carcinomas A549 (ATCC® CCL-185) and NCI-H1299 (ATCC® CRL-5803), colorectal carcinomas HCT116 (ATCC® CCL-247) and HCT116p53^−/−, normal skin fibroblasts BJ (ATCC® CRL-2522), and normal lung fibroblasts MRC-5 (ATCC® CCL-171). The HCT116 p53^−/− cell line was a kind gift from Professor Bert Vogelstein (John Hopkin’s University, Baltimore, MD, USA). The remaining cell lines were purchased from ATCC (Manassas, VA, USA). The cells were cultured in minimal, Dulbecco’s modified Eagle’s, or Ham’s F-12K medium supplemented with 10% fetal bovine serum (Gibco by Thermo Fisher Scientific, Waltham, MA, USA) and grown under standard culture conditions (37°C, 5% CO2) in a humidified incubator with an oxygen concentration of 21%. All of the experiments were performed with mycoplasma-free cells.
(§2) The viability of the cells was assayed by measuring the conversion of MTT (3-(4,5-dimethylthiazol-2-yl)-2,5-diphenyltetrazolium bromide) to formazan (the rate of this reaction is proportional to the number of surviving cells). The cells were seeded in 96-well culture plates at a density of 3500–5000 cells per well 24 h before the treatment. Six wells were considered for each experimental point (technical repeats). Treatments with increasing concentrations of 10, 11, or cisplatin (0.6–80 μM) were performed for 72 h. The MTT stock solution (Sigma-Aldrich by Merck, Darmstadt, Germany) was added at a final concentration of 0.5 mg/mL. After 4 h of incubation at 37 °C, the water-insoluble formazan was dissolved in a lysis buffer containing 20% SDS, 50% DMF, 2.5% hydrochloric acid, and 2.5% acetic acid. The optical densities were measured at 570 nm using a scanning multi-well spectrophotometer (PARADIGM Detection Platform; Beckman Coulter, Brea, CA, USA). The ratio of the absorbance value of each tested group to the absorbance value of the untreated control was calculated, and each tested group’s cell viability was expressed as a percentage of the control. The cell viability assays were performed at least in triplicate using independent cell cultures.

[2] = system: normal skin fibroblasts BJ; test: MTT cell viability assay, BJ; assay type: cell-based, human; conditions: 72 h, read-out: IC50 BJ (normal skin)
Text: as §1
as §2, with “The cell viability assays were performed at least in triplicate using independent cell cultures.” left out

lung carcinoma A549 = test: MTT cell viability assay, A549; assay type: cell-based, human; conditions: for IC50: read-out: IC50 A549 (lung cancer)
Text: as §1, §2

HCT116 cells = test: IncuCyte live-cell imaging, cell proliferation and death assay, HCT116; assay type: cell-based, human; conditions: 40 µM; for time at which cell death starts to increase significantly, HCT116: SYTOX Green Dead Cell Stain; for confluence, HCT116: up to 72 h, untreated 90%, DMSO 84% on the third day
Text: (§3) The cell proliferation and death were estimated in the IncuCyte S3 live-cell imaging system using the SYTOX™ Green Dead Cell Stain (Thermo, cat. no: S34860) and analyzed using the IncuCyte 2019B Rev2 software (Essen BioScience, Ann Arbor, MI, USA), according to the manufacturer’s instructions (https://www.sartorius.com/en/products/live-cell-imaging-analysis/live-cell-analysis-resources/live-cell-imaging-and-analsis-handbook (accessed on 21 October 2022)). The HCT116 and HCT116 p53^−/− cells were seeded in 96-well culture plates at a density of 5000 cells per well 24 h before the treatment. Four wells were considered for each experimental point. Treatments with 10, 11, cisplatin (40 μM), or dimethyl sulfoxide (which was used as a negative control at a concentration equal to the one used to dissolve 10 and 11) were carried out for up to 72 h, and images were recorded every 2 h during this time. The experiment was performed twice.

[3] = system: colorectal carcinoma HCT116p53^−/−; test: MTT cell viability assay, HCT116p53-/-; assay type: cell-based, human; conditions: for IC50: 72 h, read-out: IC50 HCT116p53^−/− (colon cancer); for SI index: IC50 HCT116p53^−/−/IC50 HCT116: ratio of p53 knockout to wild-type HCT116
Text: as §1, §2

[4] = system: epidermoid carcinoma A-431; test: MTT cell viability assay, A-431; assay type: cell-based, human; conditions: for IC50: read-out: IC50 A-431 (epidermoid cancer); for SI index: IC50 BJ/IC50 A-431: selectivity index, normal skin BJ vs A-431
Text: as §1, §2

[5] = system: colorectal carcinoma HCT116; test: MTT cell viability assay, HCT116; assay type: cell-based, human; conditions: read-out: IC50 HCT116 (colon cancer)
Text: as §1
as §2, with “The cell viability assays were performed at least in triplicate using independent cell cultures.” left out

lung carcinoma NCI-H1299 = test: MTT cell viability assay, NCI-H1299; assay type: cell-based, human; conditions: for IC50: read-out: IC50 NCI-H1299 (lung cancer)
Text: as §1, §2

HCT116 p53^−/− cells = test: IncuCyte live-cell imaging, cell proliferation and death assay, HCT116p53-/-; assay type: cell-based, human; conditions: 40 µM; for time at which cell death starts to increase significantly, HCT116p53^−/−: SYTOX Green Dead Cell Stain; for confluence, HCT116p53^−/−: up to 72 h, untreated 88%, DMSO 83% on the third day
Text: as §3

[6] = system: Heps (liver cancer) cell line; design: method as in earlier work; conditions: cited from earlier work
Sarcoma 180 = system: Sarcoma 180; design: method as in earlier work; conditions: cited from earlier work
solid tumors = system: solid tumors; design: method as in PMID 4959850; conditions: cited from earlier work
[7] = ratio of IC50 values vs cisplatin

N#CCC[C@H]1NC(=O)c2ccccc2-n2c1nc1ccccc1c2=O [auranthine]
cytotoxic activity against HCT-116 (HCT-116): no cytotoxic activities | cytotoxic activity against normal IKHE (normal IKHE cell line): no cytotoxic activities | cytotoxic activity against MDA-MB-435 (MDA-MB-435): no cytotoxic activities | cytotoxic activity against HepG2 (HepG2): no cytotoxic activities | cytotoxic activity against Calu-3 (Calu-3): no cytotoxic activities

O=C1NC(CSCSCC2NC(=O)c3cc([N+](=O)[O-])ccc3NC2=O)C(=O)Nc2ccc([N+](=O)[O-])cc21 (centres unmarked) [Compound 10, 3,3′-((methylenebis(sulfanediyl))bis(methylene))bis(7-nitro-3,4-dihydro-1H-benzo[e][1,4]diazepine-2,5-dione)]
IC50 ([1]; Homo sapiens, MRC5, 72 h, MTT, 72 h, mean ± SD, n = 3): 16.9 ± 2.96 µM | IC50 ([1]; MTT, 72 h, mean ± SD, n = 3): 16.9 ± 2.96 µM | IC50 ([2]; Homo sapiens, Skin fibroblast, MTT, mean ± SD, n = 3): 16.7 ± 2.77 µM | IC50 (lung carcinoma A549; Homo sapiens, A549, MTT, 72 h, mean ± SD, n = 3): 1.6 ± 0.21 µM | times more cytotoxic than cisplatin, A549 (lung carcinoma A549; [7]): 3.72 times | time at which cell death starts to increase significantly, HCT116 (HCT116 cells): 24 h | confluence, HCT116 (HCT116 cells): up to 16% | IC50 ([3]; Homo sapiens, MTT, mean ± SD, n = 3): 5.56 ± 0.74 µM | SI index: IC50 HCT116p53^−/−/IC50 HCT116 [3]: 1.05 ± 0.19 (ns) ^c (*) ^b | IC50 ([4]; Homo sapiens, A-431, MTT, 72 h, mean ± SD, n = 3): 3.47 ± 0.32 µM | SI index: IC50 BJ/IC50 A-431 [4]: 4.88 ± 1.08 (**) ^c (ns) ^b | IC50 ([5]; Homo sapiens, HCT-116, MTT, 72 h, mean ± SD, n = 3): 5.31 ± 0.23 µM | IC50 (lung carcinoma NCI-H1299; Homo sapiens, NCI-H1299, MTT, 72 h, mean ± SD, n = 3): 1.07 ± 0.25 µM | times more cytotoxic than cisplatin, NCI-H1299 (lung carcinoma NCI-H1299; [7]): 5.33 times | time at which cell death starts to increase significantly, HCT116p53^−/− (HCT116 p53^−/− cells): 24 h | confluence, HCT116p53^−/− (HCT116 p53^−/− cells): up to 16%

CN1c2ccccc2C(=O)n2c3ccccc3c3ccnc1c32 [evodiagenine]
cytotoxic activity against Heps (liver cancer) [6]: exhibits cytotoxic activity | cytotoxic activity against Sarcoma 180 (Sarcoma 180): exhibits cytotoxic activity

O=C1NC(CSCSCC2NC(=O)c3ccc([N+](=O)[O-])cc3NC2=O)C(=O)Nc2cc([N+](=O)[O-])ccc21 (centres unmarked) [Compound 11, 3,3′-((methylenebis(sulfanediyl))bis(methylene))bis(8-nitro-3,4-dihydro-1H-benzo[e][1,4]diazepine-2,5-dione)]
IC50 ([1]; Homo sapiens, MRC5, 72 h): 28.7 ± 7.6 µM | IC50 ([2]; Homo sapiens, Skin fibroblast): 23.1 ± 2.34 µM | IC50 (lung carcinoma A549; Homo sapiens, A549, 72 h): 16.3 ± 4.65 µM | SI index: IC50 MRC-5/IC50 A549 (lung carcinoma A549; selectivity index, normal lung MRC-5 vs A549): 1.86 ± 0.79 (ns) ^c (ns) ^b | time at which cell death starts to increase significantly, HCT116 (HCT116 cells): 36 h | confluence, HCT116 (HCT116 cells): up to 16% | IC50 ([3]; Homo sapiens): 6.07 ± 0.9 µM | SI index: IC50 HCT116p53^−/−/IC50 HCT116 [3]: 1.26 ± 0.3 (ns) ^c (*) ^b | IC50 ([4]; Homo sapiens, A-431, 72 h): 3.97 ± 0.87 µM | IC50 ([5]; Homo sapiens, HCT-116, 72 h): 4.9 ± 0.53 µM | IC50 (lung carcinoma NCI-H1299; Homo sapiens, NCI-H1299, 72 h): 4.91 ± 1.45 µM | time at which cell death starts to increase significantly, HCT116p53^−/− (HCT116 p53^−/− cells): 36 h | confluence, HCT116p53^−/− (HCT116 p53^−/− cells): up to 16%

N.N.[Cl][Pt][Cl] [Cisplatin, cisplatin, reference compound]
IC50 ([1]; MTT, 72 h, mean ± SD, n = 3): 4.17 ± 0.88 µM | IC50 ([2]; MTT, mean ± SD, n = 3): 5.06 ± 0.94 µM | IC50 (lung carcinoma A549; MTT, 72 h, mean ± SD, n = 3): 5.95 ± 1.28 µM | time of highest number of SYTOX Green positive cells, HCT116 (HCT116 cells): 48 h | time at which cell death starts to increase significantly, HCT116 (HCT116 cells): 18 h | confluence, HCT116 (HCT116 cells): up to 16% | IC50 ([3]; MTT, mean ± SD, n = 3): 10.8 ± 2.86 µM | SI index: IC50 HCT116p53^−/−/IC50 HCT116 [3]: 3.18 ± 0.79 (*) ^c | IC50 ([4]; MTT, 72 h, mean ± SD, n = 3): 1.56 ± 0.29 µM | SI index: IC50 BJ/IC50 A-431 [4]: 3.26 ± 0.41 (**) ^c | SI index: IC50 BJ/IC50 A-431 ([4]; listed as cisplatin): 3.26 ± 0.41 | IC50 ([5]; MTT, 72 h, mean ± SD, n = 3): 3.51 ± 1.16 µM | IC50 (lung carcinoma NCI-H1299; MTT, 72 h, mean ± SD, n = 3): 5.7 ± 0.88 µM | time to plateau of cell death, HCT116p53^−/− (HCT116 p53^−/− cells): about 72 h | cell death level (SYTOX Green positive cells) at plateau, HCT116p53^−/− (HCT116 p53^−/− cells; after about 72 h): 5116.3 ± 211.41 | confluence, HCT116p53^−/− (HCT116 p53^−/− cells): up to 16%

Cc1ccc2c(c1O)NC(O)C1CC(/C=C/C(N)=O)=CN1C2=O (centres unmarked) [Anthramycin, anthramycin]
growth of solid tumors in mice (solid tumors): inhibited the growth of solid tumors in mice
